Legend:
Type in all cases: biochemical
[1] = target: T1, Gox0313 (Gluconobacter oxydans, UniProt Q5FU50); experiment: Enzyme activity assay (rate of NAD(P)H decrease at 340 nm), Gox0313; settings: 10 mM substrate; for Specific Activity: Tab. 6, Gox0313, substrate reduction, cofactor NADH, pH 7.0, 30 °C; for Activity: Table 3, Gox0313, K-phosphate buffer pH 7.0, 0.05 mM NAD(P)H, 30 °C
T1 sequence (Q5FU50 1-343): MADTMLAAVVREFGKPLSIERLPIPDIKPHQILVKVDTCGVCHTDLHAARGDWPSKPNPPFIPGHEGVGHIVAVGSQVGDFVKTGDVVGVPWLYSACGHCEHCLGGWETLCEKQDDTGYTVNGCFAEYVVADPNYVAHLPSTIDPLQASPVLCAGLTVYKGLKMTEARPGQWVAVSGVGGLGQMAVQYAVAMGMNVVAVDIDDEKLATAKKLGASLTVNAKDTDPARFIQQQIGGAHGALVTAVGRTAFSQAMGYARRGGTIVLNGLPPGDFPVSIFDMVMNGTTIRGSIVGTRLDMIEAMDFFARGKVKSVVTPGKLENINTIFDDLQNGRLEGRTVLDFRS
Procedure, shortened: (§1)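 Purified enzymes assayed at 30 °C in 40 mM potassium phosphate pH 7.0 with 10 mM substrate and NAD(P)H (0.025 mM, or 0.05 mM in the standard mixture), started by adding enzyme or substrate. Activity followed as the rate of NAD(P)H decrease at 340 nm; one unit = 1 µmol pyridine nucleotide converted per min; protein measured by Bradford.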

[2] = target: Gox0644 (Gluconobacter oxydans, UniProt Q5FT75); experiment: Enzyme activity assay (rate of NAD(P)H decrease at 340 nm), Gox0644; settings: 10 mM substrate; for Specific Activity: Tab. 4, Gox0644, cofactor NADPH, pH 7.0, 30 °C; for Activity: Table 3, Gox0644, K-phosphate buffer pH 7.0, 0.05 mM NAD(P)H, 30 °C
Description: (§2) Reactions were induced by addition of enzyme or substrate. One unit of enzyme activity was defined as the amount of enzyme catalyzing the conversion of 1 µmol of pyridine nucleotide per min at 30 °C.
as §2
For each enzyme (Gox0313, Gox0502, Gox0644, Gox0646, Gox1615, Gox2107, and Gox2684 respectively), fresh enzyme preparations were used to validate the substrate spectrum and the kinetic activity. […] Reactions were induced by addition of enzyme or substrate. One unit of enzyme activity was defined as the amount of enzyme catalyzing the conversion of 1 µmol of pyridine nucleotide per min at 30 °C. […] Table 3: Summary of enzymatic activities with α-diketones, α-ketoaldehydes and /or α-ketoesters

[3] = target: T2, Gox1615 (Gluconobacter oxydans, UniProt Q5FQJ0); experiment: Enzyme activity assay (rate of NAD(P)H decrease at 340 nm), Gox1615; settings: 10 mM substrate; for Specific Activity: Tab. 5, Gox1615, cofactor NADPH, pH 7.0, 30 °C; for Activity: Table 3, Gox1615, K-phosphate buffer pH 7.0, 0.05 mM NAD(P)H, 30 °C
T2 sequence (Q5FQJ0 1-332): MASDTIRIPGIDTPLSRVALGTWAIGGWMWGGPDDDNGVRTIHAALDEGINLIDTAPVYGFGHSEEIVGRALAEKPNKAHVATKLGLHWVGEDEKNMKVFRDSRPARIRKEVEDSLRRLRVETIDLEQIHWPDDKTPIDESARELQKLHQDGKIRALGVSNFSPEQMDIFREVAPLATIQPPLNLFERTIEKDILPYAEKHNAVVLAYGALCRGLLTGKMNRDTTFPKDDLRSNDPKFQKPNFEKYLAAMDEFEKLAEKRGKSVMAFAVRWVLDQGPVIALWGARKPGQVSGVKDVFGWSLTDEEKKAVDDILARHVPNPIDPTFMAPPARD
Procedure, shortened: as §1

[4] = target: Gox2107 (Gluconobacter oxydans, UniProt Q5FP53); experiment: Enzyme activity assay (rate of NAD(P)H decrease at 340 nm), Gox2107; settings: 10 mM substrate; for Specific Activity: Tab. 7, Gox2107, cofactor NADPH, pH 7.0, 30 °C
Procedure, shortened: as §1

[5] = target: T3, Gox2684 (Gluconobacter oxydans, UniProt Q5HXK5); experiment: Enzyme activity assay (rate of NAD(P)H decrease at 340 nm), Gox2684; settings: for Specific Activities: Tab. 8, GOX2684, cofactor NADPH, 10 mM substrate, pH 7.0, 30 °C; for activities: Gox2684, substrates with highest activities
T3 sequence (Q5HXK5 1-357): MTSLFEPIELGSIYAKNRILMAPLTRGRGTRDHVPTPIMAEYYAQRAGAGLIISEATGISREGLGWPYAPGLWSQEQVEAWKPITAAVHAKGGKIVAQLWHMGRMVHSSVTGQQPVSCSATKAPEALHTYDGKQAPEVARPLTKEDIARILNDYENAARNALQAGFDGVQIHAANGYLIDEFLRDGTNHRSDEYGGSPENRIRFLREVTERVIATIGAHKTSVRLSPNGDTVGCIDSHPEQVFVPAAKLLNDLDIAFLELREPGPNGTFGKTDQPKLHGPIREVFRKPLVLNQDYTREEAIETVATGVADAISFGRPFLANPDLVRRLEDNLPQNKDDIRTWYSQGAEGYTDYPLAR
Procedure, shortened: as §1

| activities [5] [U/mg protein] | Activity ([4]; Table 3, Gox2107, K-phosphate buffer pH 7.0, 0.05 mM NAD(P)H, 30 °C) [U/mg] | SMILES | Specific Activity [1] [U/mg] | Activity [1] [U/mg] | Specific Activity [2] [U/mg] | Activity [2] [U/mg] | Specific Activity [3] [U/mg] | Activity [3] [U/mg] | Specific Activity [4] [U/mg] | Specific Activities [5] [U/mg] |
| --- | --- | --- | --- | --- | --- | --- | --- | --- | --- | --- |
|  |  | CCC(=O)C(=O)CC [3,4-hexanedione] | 19.5 | 19.5 | 7.3 | 7.3 | 2 | 2.0 | < 0.1 | 0.6 |
| 2.3 |  | CCCC(=O)C(C)=O [2,3-hexanedione] | 19.6 | 19.6 | 50.1 | 50.1 | 6.5 | 6.5 | < 0.1 | 2.3 |
| 2.1 | 35.2 | O=CC(=O)c1ccccc1 [phenylglyoxal] | 0.5 | 0.5 | 66.0 | 66.0 | 19.1 | 19.1 | 35.2 | 2.1 |
|  |  | CCC(=O)C(C)=O [2,3-pentanedione] | 35.9 | 35.9 | 89.3 | 89.3 | 6.2 | 6.2 |  | 0.6 |
|  |  | CC(=O)C=O [methylglyoxal] | 10.6 | 10.6 | 3.4 | 3.4 | 19.3 | 19.3 | < 0.1 | 1.4 |

From patent EP2119770B1, “Production of alpha-oxyfunctionalized carbonyl compounds” (priority 2008, dated 2009)
